US11478505B2, “Compositions of ixabepilone” (R-Pharm US Operating LLC, priority 2020, dated 2022)

Legend:
[1] = cited from earlier work
[2] = system: A549 Human Lung Carcinoma; assay: cytotoxicity, cell viability count after 96 h of treatment; assay type: cell-based; details: 20 nM, trypan blue
Procedure: (§1) After 96 hours of treatment, cells were counted for viability.
(§2) Materials and Equipment: Eagle's Minimum Essential Media (ATCC No. 30-2003); F-12K Media (ATCC No. 30-2008); Fetal Bovine Serum (ATCC No. 30-2020); Penicillin/Streptomycin (Thermo Fisher No. 15-140-122); Human Recombinant Insulin 0.01 mg/mL (Sigma No. 19278); Trypsin (ATCC No. 25-200-072); Phosphate Buffered Saline (Corning from Thermo Fisher No. 21040CM); Hemocytometer (Hausser from Fischer No. 02-671-6); Trypan blue (Gibco No. 15250061); p100 tissue culture dishes (Falcon-Corning No. 08-772E). Ixabepilone (Lot 3L7304N) was provided by R-Pharm US. […] Saline control was phosphate-buffered 150 mM NaCl solution.
(§3) Cells were rapidly thawed in a water bath at 37° C. and resuspended in appropriate media before being transferred to 60 mm or 100 mm tissue culture dishes. A549 cells were maintained in F12-K media, supplemented with 10% fetal bovine serum, and 1% penicillin/streptomycin. MCF7 cells were maintained in Eagle's Minimum Essential media, supplemented with 10% fetal bovine serum, 1% penicillin/streptomycin, and 0.01 mg/mL insulin. All cells were passaged at least three times before treatment. […] Saline was administered at the equivalent volume used for the ixabepilone treatment for each respective cell line. At 96 h, cells were trypsinized and harvested and counted with trypan blue on a hemocytometer.

[3] = system: MCF7 Human Breast Adenocarcinoma; assay: as above; assay type: cell-based; details: 40 nM, trypan blue
Procedure: as §1, §2, §3

C/C(=C\c1csc(C)n1)[C@@H]1C[C@@H]2O[C@]2(C)CCC[C@H](C)[C@H](O)[C@@H](C)C(=O)C(C)(C)[C@@H](O)CC(=O)N1 [ixabepilone, (1S,3S,7S,10R,11S,12S,16R)-7,11dihydroxy-8,8,10,12,16-pentamethyl-3-[(1E)-1-methyl-2-(2-methyl-4-thiazolyl)ethenyl]17-oxa-4-azabicyclo[14.1.0] heptadecane-5,9-dione]
tolerability ([1]; doses of 0.1, 1.0 or 2.0 mg/kg, weekly IV, 5 doses): generally well tolerated | no observed adverse effect level (NOAEL) ([1]; weekly intravenous dosing for one month (5 doses)): 0.1 mg/kg | average cell viability count [2]: 106×10^4 | average cell viability count [3]: 70×10^4
